The assay has as its system SARS-CoV-2 (WT, D614G). In kind it is cell-based. The following applies: 50 µM.

In the case of alpha-1-antitrypsin [A1AT], the “inhibition of SARS-CoV-2 replication / infection” value came to 45%.

(Values after patent publication US20240350597A1, “PROTEASE INHIBITORS” (University College Dublin, priority 2023, published 2024).)
